The numbers were not newly measured in patent US20070202055A1, “Pharmaceutical Formulations” (priority 2006, published 2007), which cites them from elsewhere.

Structures are written as SMILES.

For series [1], the system named is secretions of natural tear components. The conditions noted are these: preclinical testing.
Series [2] relates to rhinoviruses.
The test system of series [3] is symptoms associated with chronic nasal congestion.

As to `O=c1ccn([C@@H]2O[C@H](COP(=O)(O)OP(=O)(O)OP(=O)(O)OP(=O)(O)OC[C@H]3O[C@@H](n4ccc(=O)[nH]c4=O)[C@H](O)[C@@H]3O)[C@@H](O)[C@H]2O)c(=O)[nH]1` [diquafosol], the “effect on secretions of natural tear components” value in series [1] was “increased the secretions of natural tear components”.
For the molecule `Cc1cc(CCCOc2c(C)cc(-c3noc(C(F)(F)F)n3)cc2C)on1` [Pleconaril, 1,2,4-oxadiazole3-[3,5-Dimethyl-4-[3-(3-methyl-5-isoxazolyl)propoxy]phenyl]-5-(trifluoremethyl)], the activity against rhinoviruses entry in series [2] was “active”. The “solubility in aqueous solvents” value (aqueous solvents) is reported as “insoluble”. Further, the “solubility in liquids of low polarity” value (for example corn oil and ethanol) is on record as “soluble only in liquids of low polarity”.
For the molecule `Oc1cccc(Nc2ncc(F)c(Nc3cccc(O)c3)n2)c1` [Example R112], in series [3], the “absolute difference over placebo” value is on record as 9% and the “relative improvement over placebo” value was “greater than 20%”. Further, the “improvement from baseline measurements” value in series [3] (baseline prior to drug initiation) is listed as “up to 38%”.
